Source: the supplement of paper PMC11208160

Experiment: recombinant barcode read abundance after kanamycin selection (control-corrected) (log10(CPM+1)); higher = more efficient recombination; sequences stand for … in AGTGCAGAGAAAATCGGCCAGTTTTCTCTGCCTGCAGTCCGCATGCCGT…AGATTTATGCAGCGGACTGCCTTTCTCCCAAAGTGATAAACCGGACAGTATCATGGACCGGTTTTCCCGGTAATCCGTATTTGCAAGGTTGGTTTCACT; site = the 11-nt target
How it was run: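 In a pooled screen in E. coli, targets were paired with target-binding loops of the IS621 bridge RNA. Each oligo carried a promoter, a target, a barcode and the first 104 bridge RNA bases driven by J23119, and was Gibson-cloned into a vector holding the remaining 73 bp and a T7-inducible recombinase before co-electroporation with a donor plasmid. Duplicate platings went onto chloramphenicol/ampicillin LB agar as the control or onto chloramphenicol/ampicillin/kanamycin with 0.1 mM IPTG. Recombination efficiency is the averaged, control-corrected count per million of barcodes at recombinant junctions, given as log10(CPM+1).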
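Note: IS621 recombinase and bridge RNA in Escherichia coli cells.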

Sequence	recombinant barcode read abundance (log10)
TACTGAACTTGGGTTCTAACCTGTTGCCT (site TACTGAACTAG)	0.159
TACTGAACTTGGGTTCTAACCTGTTGCCT (site TACTTAACTAG)	0.305
TACTGGGCTTGGGTTCTAACCTGTTGCTG (site TACTGGGCTCA)	0.684
TACTGGGCTTGGGTTCTAACCTGTTGCTG (site TACTGGGCTCC)	0.0895
TAGAACACTTGGGTTCTAACCTGTTGCCT (site AAGAACACTAG)	0.0955
TAGAACACTTGGGTTCTAACCTGTTGCCT (site CAGAACACTAG)	0.256
TAGAACACTTGGGTTCTAACCTGTTGCCT (site GAGAACACTAG)	0.108
TAGAACACTTGGGTTCTAACCTGTTGCCT (site TAGAACACTAG)	0.992
TAGAACACTTGGGTTCTAACCTGTTGCTA (site TAGAACACTAA)	0.237
TAGAACACTTGGGTTCTAACCTGTTGCTA (site TAGAACACTCA)	0.109
TAGAACACTTGGGTTCTAACCTGTTGCTA (site TAGAACACTGA)	0.71
TAGAACACTTGGGTTCTAACCTGTTGCTA (site TAGAACACTTA)	0.807
TAGAACACTTGGGTTCTAACCTGTTGCTG (site TAGAACACTAA)	0.106
TAGAACACTTGGGTTCTAACCTGTTGCTG (site TAGAACACTCA)	1
TAGAACACTTGGGTTCTAACCTGTTGCTG (site TAGAACACTGA)	0.132
TAGAACACTTGGGTTCTAACCTGTTGCTG (site TAGAACACTTA)	0.0894
TAGAACTCTTGGGTTCTAACCTGTTGCCG (site TAGAACTCTAG)	0.242
TAGAACTCTTGGGTTCTAACCTGTTGCCG (site TAGAACTCTCG)	0.591
TAGAACTCTTGGGTTCTAACCTGTTGCCG (site TAGAACTCTGG)	0.0844
TAGAACTCTTGGGTTCTAACCTGTTGCCG (site TAGAACTCTTG)	0.127
TAGAAGACTTGGGTTCTAACCTGTTGCTT (site TAGAAGACTAA)	0.37
TAGAAGACTTGGGTTCTAACCTGTTGCTT (site TAGAAGACTCA)	0.282

Sequence	recombinant barcode read abundance (log10)
TAGAAGACTTGGGTTCTAACCTGTTGCTT (site TAGAAGACTGA)	0.0968
TAGAAGACTTGGGTTCTAACCTGTTGCTT (site TAGAAGACTTA)	0.399
TAGAAGGCTTGGGTTCTAACCTGTTGCTA (site TAGAAGCCTTA)	0.0194
TAGAAGGCTTGGGTTCTAACCTGTTGCTA (site TAGAAGGCTTA)	1.15
TAGAAGTCTTGGGTTCTAACCTGTTGCTG (site AAGATGTCTCA)	0.122
TAGAAGTCTTGGGTTCTAACCTGTTGCTG (site TAGAAGTCTCA)	1.46
TAGAATACTTGGGTTCTAACCTGTTGCGG (site TAGAATACTCC)	1.06
TAGAATACTTGGGTTCTAACCTGTTGCGG (site TATAATACTCC)	0.0627
TAGAATCCTTGGGTTCTAACCTGTTGCAC (site TAGAATCCTAT)	0.117
TAGAATCCTTGGGTTCTAACCTGTTGCAC (site TAGAATCCTCT)	0.152
TAGAATCCTTGGGTTCTAACCTGTTGCAC (site TAGAATCCTGT)	0.152
TAGAATCCTTGGGTTCTAACCTGTTGCAC (site TAGAATCCTTT)	0.103
TAGACAGCTTGGGTTCTAACCTGTTGCCT (site TAAACAGCTAG)	0.143
TAGACAGCTTGGGTTCTAACCTGTTGCCT (site TACACAGCTAG)	0.122
TAGACAGCTTGGGTTCTAACCTGTTGCCT (site TAGACAGCTAG)	0.416
TAGACAGCTTGGGTTCTAACCTGTTGCCT (site TATACAGCTAG)	0.0229
TAGACGACTTGGGTTCTAACCTGTTGCAC (site TAGACGACTGT)	1.57
TAGACGACTTGGGTTCTAACCTGTTGCAC (site TAGCCGTCTGT)	0.173
TAGACGACTTGGGTTCTAACCTGTTGCTT (site TAGACGACTAA)	0.829
TAGACGACTTGGGTTCTAACCTGTTGCTT (site TAGCCGACTAA)	0.0758
TAGACGACTTGGGTTCTAACCTGTTGCTT (site TAGGCGACTAA)	0.0736
TAGACGACTTGGGTTCTAACCTGTTGCTT (site TAGTCGACTAA)	0.086

Sequence	recombinant barcode read abundance (log10)
TAGACTACTTGGGTTCTAACCTGTTGCCT (site CAGACTCCTAG)	0.055
TAGACTACTTGGGTTCTAACCTGTTGCCT (site TAGACTACTAG)	0.521
TAGACTACTTGGGTTCTAACCTGTTGCTC (site TAGACTACTAA)	0
TAGACTACTTGGGTTCTAACCTGTTGCTC (site TAGACTACTCA)	0.082
TAGACTACTTGGGTTCTAACCTGTTGCTC (site TAGACTACTGA)	0.123
TAGACTACTTGGGTTCTAACCTGTTGCTC (site TAGACTACTTA)	0.0392
TAGACTACTTGGGTTCTAACCTGTTGCTG (site TAGACTACTAA)	0.0928
TAGACTACTTGGGTTCTAACCTGTTGCTG (site TAGACTACTCA)	0.609
TAGACTACTTGGGTTCTAACCTGTTGCTG (site TAGACTACTGA)	0.215
TAGACTACTTGGGTTCTAACCTGTTGCTG (site TAGACTACTTA)	0.0595
TAGAGCACTTGGGTTCTAACCTGTTGCCT (site AAGAGCACTAG)	0.057
TAGAGCACTTGGGTTCTAACCTGTTGCCT (site CAGAGCACTAG)	0.114
TAGAGCACTTGGGTTCTAACCTGTTGCCT (site GAGAGCACTAG)	0.0873
TAGAGCACTTGGGTTCTAACCTGTTGCCT (site TAGAGCACTAG)	0.644
TAGATCACTTGGGTTCTAACCTGTTGCAT (site TAGATCACTAT)	0.629
TAGATCACTTGGGTTCTAACCTGTTGCAT (site TAGCTCACTAT)	0.408
TAGATCACTTGGGTTCTAACCTGTTGCAT (site TAGGTCACTAT)	0.0386
TAGATCACTTGGGTTCTAACCTGTTGCAT (site TAGTTCACTAT)	0.0464
TAGATTACTTGGGTTCTAACCTGTTGCCT (site TAAAATACTAG)	0.12
TAGATTACTTGGGTTCTAACCTGTTGCCT (site TAGATTACTAG)	0.178
TAGATTCCTTGGGTTCTAACCTGTTGCAA (site CGACAGTCTAG)	0.102
TAGATTCCTTGGGTTCTAACCTGTTGCAA (site TAGATTCCTTT)	0.0712

Sequence	recombinant barcode read abundance (log10)
TAGCACCCTTGGGTTCTAACCTGTTGCCA (site TAGCACCCTAG)	0.394
TAGCACCCTTGGGTTCTAACCTGTTGCCA (site TAGCACCCTCG)	0.218
TAGCACCCTTGGGTTCTAACCTGTTGCCA (site TAGCACCCTGG)	0.156
TAGCACCCTTGGGTTCTAACCTGTTGCCA (site TAGCACCCTTG)	0.965
TAGCACCCTTGGGTTCTAACCTGTTGCCT (site TAGCACCCTAG)	1.79
TAGCACCCTTGGGTTCTAACCTGTTGCCT (site TAGCACCCTCG)	0.0128
TAGCACCCTTGGGTTCTAACCTGTTGCCT (site TAGCACCCTGG)	0.671
TAGCACCCTTGGGTTCTAACCTGTTGCCT (site TAGCACCCTTG)	0.144
TAGCATACTTGGGTTCTAACCTGTTGCCT (site TAGCATACTAG)	1.37
TAGCATACTTGGGTTCTAACCTGTTGCCT (site TAGCATACTCG)	0.112
TAGCATACTTGGGTTCTAACCTGTTGCCT (site TAGCATACTGG)	0.308
TAGCATACTTGGGTTCTAACCTGTTGCCT (site TAGCATACTTG)	0.0681
TAGCCCACTTGGGTTCTAACCTGTTGCGG (site TAGCACACTCC)	0.0811
TAGCCCACTTGGGTTCTAACCTGTTGCGG (site TAGCCCACTCC)	1.35
TAGCCCACTTGGGTTCTAACCTGTTGCGG (site TAGCGCACTCC)	0.0188
TAGCCCACTTGGGTTCTAACCTGTTGCGG (site TAGCTCACTCC)	0.393
TAGCCTACTTGGGTTCTAACCTGTTGCCG (site TAGCCTACTCG)	0.725
TAGCCTACTTGGGTTCTAACCTGTTGCCG (site TAGGCTCCTCG)	0.0184
TAGCCTACTTGGGTTCTAACCTGTTGCGA (site TAGCCTACTAC)	0.0304
TAGCCTACTTGGGTTCTAACCTGTTGCGA (site TAGCCTACTCC)	0.416
